The source of these data is the supplement of paper PMC10307832.

Assay in all cases: relative viability (nuclei count vs DMSO), 5 days (fraction); higher = more cells survive
Compound in the test “Shikonin + Trametinib”: CC(C)=CC[C@@H](O)C1=CC(=O)c2c(O)ccc(O)c2C1=O [Shikonin] + CC(=O)Nc1cccc(-n2c(=O)n(C3CC3)c(=O)c3c(Nc4ccc(I)cc4F)n(C)c(=O)c(C)c32)c1 [Trametinib] (partner 0.02 µM)
Summed up: (§1)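 Nuclei were stained with Hoechst during a one-step fixation (final 0.05% Triton X-100, 1% formaldehyde, 1 ug/ml Hoechst) carried out 5 days after dosing, then counted on 4× images. The cells, lung cancer lines in 1536-well plates, had been dosed by pin tool the day after seeding with one drug alone or a fixed anchor-drug dose plus five library-drug doses (not always all listed) in √10 steps. Relative viability is the nuclei count in treated wells divided by that in vehicle wells, and each value is the median of duplicate plates.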

Compound in the test “Shikonin + Linsitinib”: CC(C)=CC[C@@H](O)C1=CC(=O)c2c(O)ccc(O)c2C1=O [Shikonin] + C[C@]1(O)C[C@@H](c2nc(-c3ccc4ccc(-c5ccccc5)nc4c3)c3c(N)nccn32)C1 [Linsitinib] (partner 1 µM)
Summed up: as §1

Compound in the test “Shikonin + Olaparib”: CC(C)=CC[C@@H](O)C1=CC(=O)c2c(O)ccc(O)c2C1=O [Shikonin] + O=C(c1cc(Cc2n[nH]c(=O)c3ccccc23)ccc1F)N1CCN(C(=O)C2CC2)CC1 [Olaparib] (partner 8 µM)
In a few lines: as §1

Compound in test [1]: CC(C)N(CCCNC(=O)Nc1ccc(C(C)(C)C)cc1)C[C@H]1O[C@@H](n2ccc3c(N)ncnc32)[C@H](O)[C@@H]1O + N=C(N)NC(=N)NCCc1ccccc1 [Phenformin] (partner 250 µM)
In a few lines: as §1

For UMC-11, the relative viability with Shikonin + Trametinib (first compound 0.01 µM) worked out at 0.573; with Shikonin + Trametinib (first compound 0.1 µM) it was 0.802; with Shikonin + Trametinib (first compound 0.3162 µM), 0.656; with Shikonin + Trametinib (first compound 1 µM) it was 0.793; in the test with Shikonin + Linsitinib (first compound 0.01 µM) it was 1.02; with Shikonin + Linsitinib (first compound 0.1 µM), 1.19. For the same cell line, the relative viability with Shikonin + Linsitinib (first compound 0.3162 µM) was 1.1; in the test with Shikonin + Linsitinib (first compound 1 µM), 1.13; in the test with Shikonin + Olaparib (first compound 0.01 µM), 0.332; in the test with Shikonin + Olaparib (first compound 0.1 µM) it was 0.374; in the test with Shikonin + Olaparib (first compound 0.3162 µM), 0.346; with Shikonin + Olaparib (first compound 1 µM), 0.374. Further, the relative viability in test [1] (first compound 0.08 µM) turned out to be 0.321; in test [1] (first compound 0.253 µM) it was 0.302; in test [1] (first compound 0.8 µM) it was 0.296; in test [1] (first compound 2.53 µM), 0.349; in test [1] (first compound 8 µM), 0.322.
